Measurements taken from ChEMBL document CHEMBL5728605, “Aromatic acetylene or aromatic ethylene compound, intermediate, preparation method, pharmaceutical composition and use thereof” (2021).
pIC50: −log10 of the molar value.

The molecules below were run against Programmed cell death protein 1/Programmed cell death 1 ligand 1 (Homo sapiens, UniProt Q15116+Q9NZQ7) (assay: Homogeneous Time-Resolved Fluorescence (HTRF) Binding Assay: 1. The compound was formulated to 10 concentrations with a 3-fold gradient with 100% DMSO.2. The solution of the compound in DMSO was added to Dilute Buffer, mixed thoroughly, then transferred to a 96-well plate.3. PD-L1 was diluted with Dilute Buffer, then added to the above 96-well plate.4. PD-1 was diluted with Dilute Buffer and added to the above 96-well plate, which was then incubated at room temperature for 30 minutes.5. A portion of anti-tag1-Eu and a portion of anti-tag2-XL665 were added to Detection Buffer, mixed thoroughly and transferred to the above 96-well plate.6. The mixture in the above 96-well plate was incubated at room temperature for 1 to 24 hours.7. HTRF values were read with Envision.).
Sequence of Programmed cell death protein 1/Programmed cell death 1 ligand 1 (Q15116 whole entry): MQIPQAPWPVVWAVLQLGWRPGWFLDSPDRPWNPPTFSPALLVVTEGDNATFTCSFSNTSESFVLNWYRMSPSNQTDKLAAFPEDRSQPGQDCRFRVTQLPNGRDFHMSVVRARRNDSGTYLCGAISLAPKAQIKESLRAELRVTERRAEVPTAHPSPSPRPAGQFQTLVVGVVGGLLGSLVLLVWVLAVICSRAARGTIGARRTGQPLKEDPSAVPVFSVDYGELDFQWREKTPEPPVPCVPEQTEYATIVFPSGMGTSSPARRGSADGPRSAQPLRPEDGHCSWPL
Sequence of Programmed cell death protein 1/Programmed cell death 1 ligand 1 (Q9NZQ7 whole entry): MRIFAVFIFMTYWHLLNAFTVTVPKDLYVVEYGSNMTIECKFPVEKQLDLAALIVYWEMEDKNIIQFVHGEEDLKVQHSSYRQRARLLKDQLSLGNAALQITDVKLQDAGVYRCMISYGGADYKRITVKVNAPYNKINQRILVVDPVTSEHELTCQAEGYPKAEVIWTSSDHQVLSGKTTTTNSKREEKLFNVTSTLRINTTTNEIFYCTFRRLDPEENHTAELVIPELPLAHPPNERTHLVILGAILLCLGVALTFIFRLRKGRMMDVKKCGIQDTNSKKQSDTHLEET
Type: protein-complex assay

Compound	pIC50
COc1cc(/C=C/c2cccc(-c3ccccc3)c2C)cc(OC)c1CN[C@@H](C)C(=O)O	6.77
COc1cc(/C=C/c2cccc(-c3ccccc3)c2C)cc(OC)c1CN1CCCC[C@H]1C(=O)O	7.22
COc1cc(/C=C/c2cccc(-c3ccccc3)c2C)cc(OC)c1CN[C@H](CO)C(=O)O	7.10
COc1cc(/C=C/c2cccc(-c3ccccc3)c2C)cc(OC)c1CN[C@@H](CO)C(=O)O	7.30
